Assay [1] addresses T1, HDAC6 enzyme (Homo sapiens, UniProt Q9UBN7).
T1 construct: HDAC6 enzyme prepared by transducing full length HDAC6 gene into Sf-9 insect cells; GST; purchased SignalChem; host or cells: Sf-9 insect cells
T1 sequence (Q9UBN7 1-1215): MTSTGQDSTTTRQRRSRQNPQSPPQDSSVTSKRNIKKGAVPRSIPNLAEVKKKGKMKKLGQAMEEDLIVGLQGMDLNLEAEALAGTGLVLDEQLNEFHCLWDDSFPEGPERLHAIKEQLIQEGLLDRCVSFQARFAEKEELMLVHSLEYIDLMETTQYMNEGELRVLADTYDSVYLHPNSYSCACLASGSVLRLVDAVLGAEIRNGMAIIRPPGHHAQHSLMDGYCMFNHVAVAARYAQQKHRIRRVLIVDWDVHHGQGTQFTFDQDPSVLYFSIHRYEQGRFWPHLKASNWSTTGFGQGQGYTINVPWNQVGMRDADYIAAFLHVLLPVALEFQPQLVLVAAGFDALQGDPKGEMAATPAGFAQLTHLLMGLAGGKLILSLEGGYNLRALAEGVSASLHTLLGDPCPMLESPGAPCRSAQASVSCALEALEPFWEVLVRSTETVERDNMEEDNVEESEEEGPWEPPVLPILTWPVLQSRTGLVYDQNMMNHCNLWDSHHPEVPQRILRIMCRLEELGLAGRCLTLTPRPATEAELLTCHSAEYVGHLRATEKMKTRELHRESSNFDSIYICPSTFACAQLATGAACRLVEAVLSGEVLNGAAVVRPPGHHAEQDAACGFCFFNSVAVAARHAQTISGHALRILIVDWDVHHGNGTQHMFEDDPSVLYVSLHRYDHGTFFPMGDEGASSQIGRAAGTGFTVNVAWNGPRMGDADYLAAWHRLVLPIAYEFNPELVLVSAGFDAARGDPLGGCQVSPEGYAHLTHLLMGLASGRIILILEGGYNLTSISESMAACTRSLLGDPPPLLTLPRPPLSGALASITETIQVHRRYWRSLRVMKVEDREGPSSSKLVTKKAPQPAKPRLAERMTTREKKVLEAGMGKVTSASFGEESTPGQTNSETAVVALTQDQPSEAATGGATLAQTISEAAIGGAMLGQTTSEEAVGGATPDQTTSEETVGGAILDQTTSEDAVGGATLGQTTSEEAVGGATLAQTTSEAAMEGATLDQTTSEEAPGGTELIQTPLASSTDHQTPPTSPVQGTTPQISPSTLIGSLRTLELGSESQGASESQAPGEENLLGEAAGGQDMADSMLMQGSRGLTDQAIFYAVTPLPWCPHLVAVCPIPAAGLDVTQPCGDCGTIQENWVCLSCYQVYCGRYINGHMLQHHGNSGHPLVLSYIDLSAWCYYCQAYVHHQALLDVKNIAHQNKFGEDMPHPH
In words: HDAC6 enzyme inhibitory assay (HDAC-Glo I/II Assay kit). Format: biochemical. To be noted: wells without enzyme = 100% inhibition; for inhibition at 10 µM: read-out: HDAC6 inhibitory rate (%) (10 μM). In outline: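 Full-length GST-purified HDAC6 from Sf-9 cells preincubated with compound 60 min at room temperature in Tris-HCl pH 7.5 buffer with MgCl2, KCl, NaCl, glutathione, Tween-20. Substrate-developer reaction 20 min, luminescence read; no-enzyme wells set as 100% inhibition.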

For assay [2], the system named is acetylated tubulin in mouse brain. The assay is described as follows: Increase in acetylated tubulin in brain (hippocampus, ELISA). The conditions noted are these: male C57BL/6J mouse, oral, 4 h after administration. Format: in vivo. An excerpt: A drug was suspended in 0.5% methyl cellulose to prepare a suspension for administration, having a concentration shown in Table 3. The suspension was orally administered into 8 to 10-week old male C57BL/6J mouse, and after the passage of the time shown in Table 3, the brain was taken out, and hippocampus was obtained. The hippocampus was homogenized under RIPA extract (FUJIFILM Wako Pure Chemical Corporation) to which protease inhibitor (Thermo Fisher Scientific) and phosphatase inhibitor (Thermo Fisher Scientific) were added, and centrifuged in 15,000 g for 15 min to prepare a protein extract. The acetylated tubulin and total tubulin in the extract were detected by the following ELISA method. Tubulin antibody (Sigma) was immobilized on 96-well plate (Microlite2+, Thermo Fisher Scientific), and the plate was stored at 4° C. Next day, the plate was washed four times with PBS-T, and blocking buffer (1% BSA/PBS-T) was added thereto, and the reaction was carried out at 37° C. for 2 hr. The plate was washed four times with PBS-T, and the above-mentioned protein extract was added thereto to capture the tubulin on the antibody. The plate was stored at 37° C. for 2 hr, and washed four times with PBS-T. Anti-acetylated tubulin antibody or total tubulin antibody (Cell Signaling Technology), each diluted with blocking buffer, was added thereto, and the reaction was carried out at 37° C. for 1 hr. […] The plate was washed, HRP substrate was added thereto, and the luminescence was measured using a plate reader. The acetylated tubulin and total tubulin were quantified from logistics curve based on dilution series using the mouse hippocampus tissue extract, and the amount of the acetylated tubulin relative to the total tubulin was calculated, and evaluated as an relative tubulin acetylation level. […] After F test for vehicle group and drug group, the significant difference between the two groups was analyzed by Student t-test or Welch test (indicated as *p<0.05, **p<0.01, n.s.: not significant). […]

Assay [3] deals with P301S mutant human tau (4R1N) Tg mouse. The assay is described as follows: Cognitive improvement action in neurodegenerative disease model mouse (novel object recognition test). Format: in vivo. The conditions noted are these: once a day for three months. Here is the method: A drug was suspended in 0.5% methyl cellulose to prepare a suspension for administration. The suspension was repeatedly administered into six month-old male P301S mutant human tau (4R1N) Tg mouse once a day for three months, and novel object recognition test was performed by the following method. The test is comprised of memory acquisition trial of object on the first day, and memory retention trial of familiar object and novel object on the second day. Drug was administered into the mouse 1 hr before the trials on both days. For acquisition trial, The mouse was put in a test box (30 cm×30 cm×25 cm) in which two identical objects were placed, and contact frequency and contact duration with the objects for 5 min were measured under 50 lux. Herein, the contact means a behavior getting a sniff of an object (Sniffing). Next day, one of the objects was replaced with new object, and contact frequency and contact duration with each object for 5 min were measured. Novelty discrimination index (NDI) as an index of cognitive function was calculated by novel object […]/(novel object contact duration+familiar object contact duration) %. […] After F test for vehicle administration wild-type group and vehicle administration Tg group, the significant difference between the two groups was analyzed by Student t-test or Welch test (indicated as **p<0.01). […]

Assay [4] relates to tauopathy mouse model. The conditions noted are these: cited from earlier work.

Each structure is given as a SMILES string. “Also recorded” adds a separate entry of the source.

For `O=C1c2cc(-c3nnc(C(F)F)o3)ccc2CN1[C@H](c1ccccn1)[C@@H](O)c1ccccn1` [Example 1, 6-[5-(difluoromethyl)-1,3,4-oxadiazol-2-yl]-2-[(1R,2R)-2-hydroxy-1,2-di(pyridin-2-yl)ethyl]-2,3-dihydro-1H-isoindol-1-one], the inhibition at 10 µM in assay [1] worked out at 101%. Besides, the “relative tubulin acetylation level (acetylated tubulin relative to total tubulin)” value (from here on “relative tubulin acetylation level”) in assay [2] was “increase in significant tubulin acetylation level; also recorded: increase in acetylated tubulin”. In assay [3], the “cognitive improvement action (novelty discrimination, relative exploration time)” value is “cognitive improvement action”.

As for `O=C1c2cc(-c3nnc(C(F)F)o3)ccc2CN1[C@H](c1ccccn1)[C@@H](O)c1ccc(F)cn1` [Example 3, 6-[5-(difluoromethyl)-1,3,4-oxadiazol-2-yl]-2-[(1R,2R)-2-(5-fluoropyridin-2-yl)-2-hydroxy-1-(pyridin-2-yl)ethyl]-2,3-dihydro-1H-isoindol-1-one], the inhibition at 10 µM in assay [1] was 101%. Moreover, the “relative tubulin acetylation level” value in assay [2] is given as “increase in significant tubulin acetylation level; also recorded: increase in acetylated tubulin”. For the same compound, the “cognitive improvement action (novelty discrimination, relative exploration time)” value in assay [3] is reported as “cognitive improvement action”.

Turning to `O=C1c2cc(-c3nnc(C(F)F)o3)ccc2CN1[C@H](c1ccc(F)cn1)[C@@H](O)c1ccc(F)cn1` [Example 5, 2-[(1R,2R)-1,2-bis(5-fluoropyridin-2-yl)-2-hydroxyethyl]-6-[5-(difluoromethyl)-1,3,4-oxadiazol-2-yl]-2,3-dihydro-1H-isoindol-1-one], the “HDAC6 inhibitory rate (%) (10 μM)” value in assay [1] (10 µM) is given as 99%. Further, the “relative tubulin acetylation level” value in assay [2] is on record as “increase in significant tubulin acetylation level; also recorded: increase in acetylated tubulin”.

On to `CN1CCc2c(c3ccccc3n2Cc2ccc(C(=O)NO)cc2)C1` [Tubastatin A], for which, in assay [4], the acetylation of tubulin result was “increases acetylation of tubulin” and the therapeutic effectiveness result is reported as “shows therapeutic effectiveness”.

These data come from US12384770B2, “Heterocyclic compound” (Takeda Pharmaceutical Company Limited, priority 2019, dated 2025).
